Patent US4068070A, “α-Cyanoamine compounds and a process for producing the same” (Fuji Chemical Industry Co., Ltd., priority 1974, dated 1978)

Legend:
Type in all cases: in vivo, mongrel adult dogs
[1] = system: arterial mean blood pressure; test: Effects on arterial mean blood pressure
Procedure: (§1) All experiments were made on male and female thoractomized mongrel adult dogs weighing about 10 kg. under anesthesia with pentobarbital sodium. Compounds A, D, E and F were suspended in 0.2% CMC solution, Compound B dissolved in hydrochloric acid solution (pH 6), and Compound C and active placebo being dissolved in physiological saline solution. Animals were administered the drug intravenously on brachiuma with either test compound or active placebo.
(§2) Arterial blood pressure was measured by pressure transducer (Nippon Koden MPU-0.5) connected with the cannula inserted from exposed carotid artery into aorta. Aortic blood flow was determined by means of electromagnetic flow meter (Nippon Koden MF-5) mounted at the origin of the aorta. Coronary sinus out flow and coronary sinus oxygen tension were assessed by means of electromagnetic flow meter (Nippon Koden MF-5) and P02 macro electrode (Beokmann Moder 160-C), respectively using Morawitz cannulization technique. Heart rate was measured by cardiotachometer (Nippon Koden RT-2) synchronized with systolic blood pressure of aorta.

[2] = system: coronary sinus oxygen tension; test: Effects on coronary sinus oxygen tension
Procedure: as §1, §2

heart rate = test: Effects on heart rate
Procedure: as §1, §2

coronary sinus out flow = test: Effects on coronary sinus out flow
Procedure: as §1, §2

aortic blood flow = test: Effects on aortic blood flow
Procedure: as §1, §2

CCOC(=O)N1CCN(C(C#N)c2ccc(OC)c(OC)c2)CC1 (centres unmarked) [Compound A]
Changes (%) of basal values, arterial mean blood pressure ([1]; 2.0 mg/kg i.v., 1 min): -1.5% | Changes (%) of basal values, arterial mean blood pressure ([1]; 2.0 mg/kg i.v., 5 min): -2.6% | Changes (%) of basal values, arterial mean blood pressure ([1]; 2.0 mg/kg i.v., 10 min): -4.2% | Changes (%) of basal values, arterial mean blood pressure ([1]; 2.0 mg/kg i.v., 20 min): -3.8% | Changes (%) of basal values, arterial mean blood pressure ([1]; 2.0 mg/kg i.v., 30 min): -4.5% | Changes (%) of basal values, arterial mean blood pressure ([1]; 2.0 mg/kg i.v., imm.): -4.0% | Changes (%) of basal values, arterial mean blood pressure ([1]; 6.0 mg/kg i.v., 1 min): -3.4% | Changes (%) of basal values, arterial mean blood pressure ([1]; 6.0 mg/kg i.v., 5 min): -5.2% | Changes (%) of basal values, arterial mean blood pressure ([1]; 6.0 mg/kg i.v., 10 min): -6.0% | Changes (%) of basal values, arterial mean blood pressure ([1]; 6.0 mg/kg i.v., 20 min): -5.2% | Changes (%) of basal values, arterial mean blood pressure ([1]; 6.0 mg/kg i.v., 30 min): -3.0% | Changes (%) of basal values, arterial mean blood pressure ([1]; 6.0 mg/kg i.v., imm.): -4.2% | Changes (%) of basal values, arterial mean blood pressure ([1]; 20.0 mg/kg i.v., 1 min): -16.9% | Changes (%) of basal values, arterial mean blood pressure ([1]; 20.0 mg/kg i.v., 5 min): -16.9% | Changes (%) of basal values, arterial mean blood pressure ([1]; 20.0 mg/kg i.v., 10 min): -16.0% | Changes (%) of basal values, arterial mean blood pressure ([1]; 20.0 mg/kg i.v., 20 min): -17.0% | Changes (%) of basal values, arterial mean blood pressure ([1]; 20.0 mg/kg i.v., 30 min): -14.9% | Changes (%) of basal values, arterial mean blood pressure ([1]; 20.0 mg/kg i.v., imm.): -14.5% | Effects on arterial mean blood pressure (in words) ([1]; i.v., anesthetized dogs): hypotensive effects being proportioned to their doses which were of long duration | Changes(%) of basal values, coronary sinus oxygen tension ([2]; 2.0 mg/kg i.v., 1 min): +15.2% | Changes(%) of basal values, coronary sinus oxygen tension ([2]; 2.0 mg/kg i.v., 5 min): +13.8% | Changes(%) of basal values, coronary sinus oxygen tension ([2]; 2.0 mg/kg i.v., 10 min): +12.5% | Changes(%) of basal values, coronary sinus oxygen tension ([2]; 2.0 mg/kg i.v., 20 min): +12.0% | Changes(%) of basal values, coronary sinus oxygen tension ([2]; 2.0 mg/kg i.v., 30 min): +12.0% | Changes(%) of basal values, coronary sinus oxygen tension ([2]; 2.0 mg/kg i.v., imm.): +11.2% | Changes(%) of basal values, coronary sinus oxygen tension ([2]; 6.0 mg/kg i.v., 1 min): +27.5% | Changes(%) of basal values, coronary sinus oxygen tension ([2]; 6.0 mg/kg i.v., 5 min): +27.0% | Changes(%) of basal values, coronary sinus oxygen tension ([2]; 6.0 mg/kg i.v., 10 min): +30.0% | Changes(%) of basal values, coronary sinus oxygen tension ([2]; 6.0 mg/kg i.v., 20 min): +19.6% | Changes(%) of basal values, coronary sinus oxygen tension ([2]; 6.0 mg/kg i.v., 30 min): +13.5% | Changes(%) of basal values, coronary sinus oxygen tension ([2]; 6.0 mg/kg i.v., imm.): +18.0% | Changes(%) of basal values, coronary sinus oxygen tension ([2]; 20.0 mg/kg i.v., 1 min): +47.2% | Changes(%) of basal values, coronary sinus oxygen tension ([2]; 20.0 mg/kg i.v., 5 min): +39.0% | Changes(%) of basal values, coronary sinus oxygen tension ([2]; 20.0 mg/kg i.v., 10 min): +91.7% | Changes(%) of basal values, coronary sinus oxygen tension ([2]; 20.0 mg/kg i.v., 20 min): +72.5% | Changes(%) of basal values, coronary sinus oxygen tension ([2]; 20.0 mg/kg i.v., 30 min): +56.9% | Changes(%) of basal values, coronary sinus oxygen tension ([2]; 20.0 mg/kg i.v., imm.): +31.6% | Effects on coronary sinus oxygen tension (in words) ([2]; i.v., anesthetized dogs): a significant increase in coronary sinus oxygen tension, effect of which was of long duration | Changes(%) of basal values, heart rate (heart rate; 2.0 mg/kg i.v., 1 min): -4.7% | Changes(%) of basal values, heart rate (heart rate; 2.0 mg/kg i.v., 5 min): -0.6% | Changes(%) of basal values, heart rate (heart rate; 2.0 mg/kg i.v., 10 min): -0.4% | Changes(%) of basal values, heart rate (heart rate; 2.0 mg/kg i.v., 20 min): 0% | Changes(%) of basal values, heart rate (heart rate; 2.0 mg/kg i.v., 30 min): 0% | Changes(%) of basal values, heart rate (heart rate; 2.0 mg/kg i.v., imm.): -5.2% | Changes(%) of basal values, heart rate (heart rate; 6.0 mg/kg i.v., 1 min): -3.9% | Changes(%) of basal values, heart rate (heart rate; 6.0 mg/kg i.v., 5 min): -2.3% | Changes(%) of basal values, heart rate (heart rate; 6.0 mg/kg i.v., 10 min): -0.9% | Changes(%) of basal values, heart rate (heart rate; 6.0 mg/kg i.v., 20 min): +1.0% | Changes(%) of basal values, heart rate (heart rate; 6.0 mg/kg i.v., 30 min): +1.0% | Changes(%) of basal values, heart rate (heart rate; 6.0 mg/kg i.v., imm.): -5.0% | Changes(%) of basal values, heart rate (heart rate; 20.0 mg/kg i.v., 1 min): +1.5% | Changes(%) of basal values, heart rate (heart rate; 20.0 mg/kg i.v., 5 min): 0% | Changes(%) of basal values, heart rate (heart rate; 20.0 mg/kg i.v., 10 min): -1.8% | Changes(%) of basal values, heart rate (heart rate; 20.0 mg/kg i.v., 20 min): -6.0% | Changes(%) of basal values, heart rate (heart rate; 20.0 mg/kg i.v., 30 min): -6.7% | Changes(%) of basal values, heart rate (heart rate; 20.0 mg/kg i.v., imm.): -7.0% | Effects on heart rate (in words) (heart rate; i.v., anesthetized dogs): a slight negative chronotropic effect | Changes(%) of basal values, coronary sinus out flow (coronary sinus out flow; 2.0 mg/kg i.v., 1 min): +7.6% | Changes(%) of basal values, coronary sinus out flow (coronary sinus out flow; 2.0 mg/kg i.v., 5 min): +5.4% | Changes(%) of basal values, coronary sinus out flow (coronary sinus out flow; 2.0 mg/kg i.v., 10 min): +4.7% | Changes(%) of basal values, coronary sinus out flow (coronary sinus out flow; 2.0 mg/kg i.v., 20 min): +4.0% | Changes(%) of basal values, coronary sinus out flow (coronary sinus out flow; 2.0 mg/kg i.v., 30 min): +3.5% | Changes(%) of basal values, coronary sinus out flow (coronary sinus out flow; 2.0 mg/kg i.v., imm.): +10.9% | Changes(%) of basal values, coronary sinus out flow (coronary sinus out flow; 6.0 mg/kg i.v., 1 min): +16.6% | Changes(%) of basal values, coronary sinus out flow (coronary sinus out flow; 6.0 mg/kg i.v., 5 min): +17.0% | Changes(%) of basal values, coronary sinus out flow (coronary sinus out flow; 6.0 mg/kg i.v., 10 min): +18.0% | Changes(%) of basal values, coronary sinus out flow (coronary sinus out flow; 6.0 mg/kg i.v., 20 min): +8.5% | Changes(%) of basal values, coronary sinus out flow (coronary sinus out flow; 6.0 mg/kg i.v., 30 min): +8.0% | Changes(%) of basal values, coronary sinus out flow (coronary sinus out flow; 6.0 mg/kg i.v., imm.): +12.0% | Changes(%) of basal values, coronary sinus out flow (coronary sinus out flow; 20.0 mg/kg i.v., 1 min): +34.3% | Changes(%) of basal values, coronary sinus out flow (coronary sinus out flow; 20.0 mg/kg i.v., 5 min): +48.3% | Changes(%) of basal values, coronary sinus out flow (coronary sinus out flow; 20.0 mg/kg i.v., 10 min): +47.1% | Changes(%) of basal values, coronary sinus out flow (coronary sinus out flow; 20.0 mg/kg i.v., 20 min): +30.0% | Changes(%) of basal values, coronary sinus out flow (coronary sinus out flow; 20.0 mg/kg i.v., 30 min): +11.8% | Changes(%) of basal values, coronary sinus out flow (coronary sinus out flow; 20.0 mg/kg i.v., imm.): +18.5% | Effects on coronary sinus out flow (in words) (coronary sinus out flow; i.v., anesthetized dogs): a marked increasing effect on coronary sinus out flow, which was proportioned to doses thereof and of long duration | Changes (%) of basal values, aortic blood flow (aortic blood flow; 2.0 mg/kg i.v., 1 min): +4.3% | Changes (%) of basal values, aortic blood flow (aortic blood flow; 2.0 mg/kg i.v., 5 min): +3.7% | Changes (%) of basal values, aortic blood flow (aortic blood flow; 2.0 mg/kg i.v., 10 min): +2.3% | Changes (%) of basal values, aortic blood flow (aortic blood flow; 2.0 mg/kg i.v., 20 min): +1.0% | Changes (%) of basal values, aortic blood flow (aortic blood flow; 2.0 mg/kg i.v., 30 min): +1.0% | Changes (%) of basal values, aortic blood flow (aortic blood flow; 2.0 mg/kg i.v., imm.): +0.5% | Changes (%) of basal values, aortic blood flow (aortic blood flow; 6.0 mg/kg i.v., 1 min): +5.8% | Changes (%) of basal values, aortic blood flow (aortic blood flow; 6.0 mg/kg i.v., 5 min): +3.7% | Changes (%) of basal values, aortic blood flow (aortic blood flow; 6.0 mg/kg i.v., 10 min): +0.1% | Changes (%) of basal values, aortic blood flow (aortic blood flow; 6.0 mg/kg i.v., 20 min): -0.2% | Changes (%) of basal values, aortic blood flow (aortic blood flow; 6.0 mg/kg i.v., 30 min): +0.2% | Changes (%) of basal values, aortic blood flow (aortic blood flow; 6.0 mg/kg i.v., imm.): +4.3% | Changes (%) of basal values, aortic blood flow (aortic blood flow; 20.0 mg/kg i.v., 1 min): +7.3% | Changes (%) of basal values, aortic blood flow (aortic blood flow; 20.0 mg/kg i.v., 5 min): +10.2% | Changes (%) of basal values, aortic blood flow (aortic blood flow; 20.0 mg/kg i.v., 10 min): +8.0% | Changes (%) of basal values, aortic blood flow (aortic blood flow; 20.0 mg/kg i.v., 20 min): +3.3% | Changes (%) of basal values, aortic blood flow (aortic blood flow; 20.0 mg/kg i.v., 30 min): +1.0% | Changes (%) of basal values, aortic blood flow (aortic blood flow; 20.0 mg/kg i.v., imm.): +6.1% | increased aortic blood flow (aortic blood flow; during the course of observation period, i.v.): 2-8%
